Data on 11 compounds can be found in patent publication US9051321B2, “Heterocyclic acrylamides and their use as pharmaceuticals” (FAB PHARMA S.A.S, priority 2009, dated 2015).

The target of one data set is HSA (human albumin) (Homo sapiens (Human), UniProt P02768). Kind of data set: HSA binding analysis using a chiral HSA column. To be noted: for k′ (capacity factor): 37° C., pH 7.0, k′=(Tr-T0)/T0; for HSA binding Conclusion: classification of AB %. The format is in vitro ADME. An excerpt:
The test system used in this analysis was an HSA chiral column.
The relationship between the retention time (Tr) and percentage of albumin binding (AB %) depended on the dead time (T0) and the capacity factor (k′): AB %=[k′/(k′+1)]*100 • where k′=(Tr-T0)/T0

In a further data set the target is E. coli FabI (Escherichia coli (strain K12), UniProt P0AEK4). To be noted: cited from earlier work.
E. coli FabI, sequence (P0AEK4 whole entry): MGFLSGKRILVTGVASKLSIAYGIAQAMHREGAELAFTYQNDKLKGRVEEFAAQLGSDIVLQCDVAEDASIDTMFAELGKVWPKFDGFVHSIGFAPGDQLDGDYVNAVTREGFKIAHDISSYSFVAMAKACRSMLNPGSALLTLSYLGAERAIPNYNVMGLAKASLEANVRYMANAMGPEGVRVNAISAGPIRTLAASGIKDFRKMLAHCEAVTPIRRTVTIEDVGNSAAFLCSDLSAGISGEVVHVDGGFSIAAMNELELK
Data set [1] has as its system methicillin susceptible Staphylococcus aureus strain ATCC 29213. The data set can be described thus: In vivo antibacterial activity, experimental model of thigh infection in neutropenic mice. The conditions noted are these: 1.5 h after infection, neutropenic female Swiss mice, 20 h.

HSA (human albumin), sequence (P02768 25-609): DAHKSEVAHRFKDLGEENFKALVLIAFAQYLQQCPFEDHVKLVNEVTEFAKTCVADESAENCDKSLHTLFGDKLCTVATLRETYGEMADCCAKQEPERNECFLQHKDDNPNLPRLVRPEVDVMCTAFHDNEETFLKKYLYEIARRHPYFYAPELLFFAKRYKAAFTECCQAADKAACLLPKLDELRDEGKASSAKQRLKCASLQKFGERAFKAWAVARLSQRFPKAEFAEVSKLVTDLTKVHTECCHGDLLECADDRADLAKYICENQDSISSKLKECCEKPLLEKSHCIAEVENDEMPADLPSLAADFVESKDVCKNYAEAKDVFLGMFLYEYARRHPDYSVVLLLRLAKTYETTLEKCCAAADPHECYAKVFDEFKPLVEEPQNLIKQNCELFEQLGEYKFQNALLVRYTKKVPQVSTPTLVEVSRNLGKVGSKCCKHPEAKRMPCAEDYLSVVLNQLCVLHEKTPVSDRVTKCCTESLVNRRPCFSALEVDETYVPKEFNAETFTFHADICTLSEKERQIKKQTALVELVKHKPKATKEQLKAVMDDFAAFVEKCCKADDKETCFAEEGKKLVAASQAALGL

On to `CCCO/N=C(/C)C1CN(C(=O)/C=C/c2cnc3c(c2)CCC(=O)N3)C1` [Example 71, 6-((E)-3-Oxo-3-(3-((Z)-1-(propoxyimino)ethyl)azetidin-1-yl)prop-1-enyl)-3,4-dihydro-1,8-naphthyridin-2(1H)-one], for which, at HSA (human albumin), the “affinity in vitro to human albumin” value was “low affinity”, the “k′ (capacity factor)” value worked out at 0.404 and the “HSA binding Conclusion” value is “Low binding (AB≦75%: Low binding)”.

Consider `CCCCOC1CN(C(=O)/C=C/c2cnc3c(c2)CC2(CCN(C)CC2)C(=O)N3)C1` [Example 63, (E)-6-(3-(3-Butoxyazetidin-1-yl)-3-oxoprop-1-enyl)-1′-methyl-1H-spiro[[1,8]naphthyridine-3,4′-piperidin]-2(4H)-one], for which, at HSA (human albumin), the “affinity in vitro to human albumin” value was “low affinity”, the “k′ (capacity factor)” value was 1.288 and the “HSA binding Conclusion” value is reported as “Low binding (AB≦75%: Low binding)”.

In the case of `O=C1CCc2cc(/C=C/C(=O)N3CC(c4cc5ccccc5o4)C3)cnc2N1` [Example 59, (E)-6-(3-(3-(Benzofuran-2-yl)azetidin-1-yl)-3-oxoprop-1-enyl)-3,4-dihydro-1,8-naphthyridin-2(1H)-one], at HSA (human albumin), the “affinity in vitro to human albumin” value is on record as “moderate affinity”, the “k′ (capacity factor)” value stood at 4.678 and the “HSA binding Conclusion” value is “Moderate”.

For `Oc1cc(Cl)ccc1Oc1ccc(Cl)cc1Cl` [Triclosan], the “type of inhibition of E. coli FabI” value at E. coli FabI is reported as “reversible, tight-binding inhibitor”.

For the compound `Cc1c(C2CN(C(=O)/C=C/c3cnc4c(c3)CCC(=O)N4)C2)oc2ccccc12` [Example 67, (E)-6-(3-(3-(3-Methylbenzofuran-2-yl)azetidin-1-yl)-3-oxoprop-1-enyl)-3,4-dihydro-1,8-naphthyridin-2(1H)-one], at HSA (human albumin), the “affinity in vitro to human albumin” value is on record as “moderate affinity”, the “k′ (capacity factor)” value worked out at 8.360 and the “HSA binding Conclusion” value is “Moderate”.

Turning to `CCCCCOC1CN(C(=O)/C=C/c2cnc3c(c2)CCC(=O)N3)C1` [Example 15, 6-{(1E)-3-Oxo-3-[3-(pentyloxy)azetidin-1-yl]prop-1-en-1-yl}-3,4-dihydro-1,8-naphthyridin-2(1H)-one], the “in vivo antibacterial activity (bacterial burden in the thigh of infected mice)” value in data set [1] (50 mg/kg subcutaneously) is reported as “able to protect mice against thigh dissemination”.

Consider `Cc1c(C2CN(C(=O)/C=C/c3cnc4c(c3)CC3(CCN(C)CC3)C(=O)N4)C2)oc2ccccc12` [Example 68, (E)-1′-Methyl-6-(3-(3-(3-methylbenzofuran-2-yl)azetidin-1-yl)-3-oxoprop-1-enyl)-1H-spiro[[1,8]naphthyridine-3,4′-piperidin]-2(4H)-one], for which, at HSA (human albumin), the “affinity in vitro to human albumin” value is recorded as “high affinity”, the “k′ (capacity factor)” value is given as 11.216 and the “HSA binding Conclusion” value is listed as “High binding (AB≦90%: High binding)”.

On to `CN1CCC2(CC1)Cc1cc(/C=C/C(=O)N3CC(c4cc5ccccc5o4)C3)cnc1NC2=O` [Example 69, (E)-6-(3-(3-(Benzofuran-2-yl)azetidin-1-yl)-3-oxoprop-1-en-1-yl)-1′-methyl-1H-spiro[[1,8]naphthyridine-3,4′-piperidin]-2(4H)-one], for which, at HSA (human albumin), the “affinity in vitro to human albumin” value is listed as “moderate affinity”, the “k′ (capacity factor)” value is on record as 7.730 and the “HSA binding Conclusion” value is “Moderate”.

For the compound `CCCO/N=C(\C)C1CN(C(=O)/C=C/c2cnc3c(c2)CCC(=O)N3)C1` [Example 70, 6-((E)-3-Oxo-3-(3-((E)-1-(propoxyimino)ethyl)azetidin-1-yl)prop-1-enyl)-3,4-dihydro-1,8-naphthyridin-2(1H)-one], at HSA (human albumin), the “affinity in vitro to human albumin” value was “low affinity”, the “k′ (capacity factor)” value was 0.580 and the “HSA binding Conclusion” value was “Low binding (AB≦75%: Low binding)”.

On to `O=C1CCc2cc(/C=C/C(=O)N3CC(OCCc4cccs4)C3)cnc2N1` [Example 29, (E)-6-(3-Oxo-3-(3-(2-(thiophen-2-yl)ethoxy)azetidin-1-yl)prop-1-enyl)-3,4-dihydro-1,8-naphthyridin-2(1H)-one], for which, at HSA (human albumin), the “affinity in vitro to human albumin” value is recorded as “low affinity”, the “k′ (capacity factor)” value is 1.259 and the “HSA binding Conclusion” value is listed as “Low binding (AB≦75%: Low binding)”.

On to `O=C1CCc2cc(/C=C/C(=O)N3CC(OCc4cccs4)C3)cnc2N1` [Example 12, 6-{(1E)-3-Oxo-3-[3-(2-thienylmethoxy)azetidin-1-yl]prop-1-en-1-yl}-3,4-dihydro-1,8-naphthyridin-2(1H)-one], for which, on HSA (human albumin), the “affinity in vitro to human albumin” value is “low affinity”, the “k′ (capacity factor)” value is recorded as 0.826 and the “HSA binding Conclusion” value is reported as “Low binding (AB≦75%: Low binding)”. Further, the “in vivo antibacterial activity (bacterial burden in the thigh of infected mice)” value in data set [1] (100 mg/kg orally) is “able to protect mice against thigh dissemination”.
